Source: ChEMBL document CHEMBL1201862, “PubChem BioAssay data set” (2004)
The source made the active and inactive calls.

Assays:
Trypsin = Trypsin (Sus scrofa, UniProt P00761); test: trypsin protease activity blockade – biochemical, quenched peptide fluorescence, cherry-pick, selectivity assay for Rce1 protease inhibitor project, dose response (AID 488789)
CAAX prenyl protease 1 = CAAX prenyl protease 1 (Saccharomyces cerevisiae S288c, UniProt P47154); test: yeast CAAX protease Ste24 inhibition – biochemical, S. cerevisiae, plate reader, cherry-pick, dose response (AID 488815)
[1] = biological target: T1, Delta-type opioid receptor (Homo sapiens, UniProt P41143); test: HTS Image-Based Screen for Antagonists of the DOR Receptor. [Related pubchem assays (depositor defined):AID1777, AID1785, AID1786, AID2133]; type: functional
Mu-type opioid receptor = Mu-type opioid receptor (Homo sapiens, UniProt P35372); test: HTS Image-Based Screen for Agonists of the MOR Receptor. [Related pubchem assays (depositor defined):AID1777, AID1785, AID1786, AID2133]; type: functional;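 note: imaging of beta-arrestin GFP recruitment into spots after receptor activation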
[2] = biological target: T1, Delta-type opioid receptor; test: HTS Image-Based Screen for Agonists of the DOR Receptor. [Related pubchem assays (depositor defined):AID1777, AID1786, AID2133]; type: functional
Streptokinase A = biological target: T2, Streptokinase A (Streptococcus pyogenes serotype M1, UniProt P10520); test: viability-normalized secreted streptokinase activity reduction – plasminogen activation absorbance, OD405, dose response (AID 1914); type: functional, Streptococcus pyogenes M1 GAS;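 note: secreted streptokinase activity via plasminogen activation per viability signal from cell pellet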
T2 sequence (P10520 whole entry): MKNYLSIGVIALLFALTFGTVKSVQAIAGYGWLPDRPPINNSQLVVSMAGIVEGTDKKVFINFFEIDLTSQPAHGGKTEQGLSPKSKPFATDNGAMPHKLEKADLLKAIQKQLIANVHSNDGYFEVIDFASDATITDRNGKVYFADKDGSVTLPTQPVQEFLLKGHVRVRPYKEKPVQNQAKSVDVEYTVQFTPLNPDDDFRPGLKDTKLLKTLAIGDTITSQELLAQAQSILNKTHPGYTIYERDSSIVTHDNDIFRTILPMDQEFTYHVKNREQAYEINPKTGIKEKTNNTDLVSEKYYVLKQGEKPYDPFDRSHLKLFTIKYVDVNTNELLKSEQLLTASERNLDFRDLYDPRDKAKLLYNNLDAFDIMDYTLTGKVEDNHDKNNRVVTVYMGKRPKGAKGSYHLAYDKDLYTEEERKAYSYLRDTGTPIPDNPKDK

[3] = biological target: T3, Kappa-type opioid receptor (Homo sapiens, UniProt P41145); type: functional
Beta-galactosidase = Beta-galactosidase (Escherichia coli, UniProt Q8VNN2); type: functional
[4] = biological target: T3, Kappa-type opioid receptor; type: functional; remark: listed apart in the source
Paired box protein Pax-8 = Paired box protein Pax-8 (Homo sapiens, UniProt Q06710); test: PAX8 transcriptional activity inhibition in RMG-I – RMG-I cells, luciferase, cherry-pick, dose response (AID 687027); type: functional, cell-based;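 note: luciferase reporter driven by Pax8 target thyroperoxidase promoter measured by SteadyGlo luminescence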
Exodeoxyribonuclease V = Exodeoxyribonuclease V (Escherichia coli (strain K12), UniProt P04993+P07648+P08394); test: RecBCD inhibition via phage-restricted bacterial growth – absorbance, V66 E. coli, mutant T4 phage, counter-screen for AddAB inhibitor project, dose response (AID 492957); type: functional, cell-based, Escherichia coli str. K-12 substr. MG1655
[5] = Counterscreen for AddAB inhibitors: absorbance-based bacterial cell-based high throughput dose response assay for inhibitors of bacterial viability. [Related pubchem assays (depositor defined):AID435030, AID449728, AID449731, AID488942, AID488955, AID488956]; type: functional
[6] = biological target: T4, High affinity choline transporter 1 (Homo sapiens, UniProt Q9GZV3); test: human choline transporter blockers, potency – cell-based, 5-point CRC, membrane potential dye, dose response (AID 504840); type: functional
T4 sequence (Q9GZV3 whole entry): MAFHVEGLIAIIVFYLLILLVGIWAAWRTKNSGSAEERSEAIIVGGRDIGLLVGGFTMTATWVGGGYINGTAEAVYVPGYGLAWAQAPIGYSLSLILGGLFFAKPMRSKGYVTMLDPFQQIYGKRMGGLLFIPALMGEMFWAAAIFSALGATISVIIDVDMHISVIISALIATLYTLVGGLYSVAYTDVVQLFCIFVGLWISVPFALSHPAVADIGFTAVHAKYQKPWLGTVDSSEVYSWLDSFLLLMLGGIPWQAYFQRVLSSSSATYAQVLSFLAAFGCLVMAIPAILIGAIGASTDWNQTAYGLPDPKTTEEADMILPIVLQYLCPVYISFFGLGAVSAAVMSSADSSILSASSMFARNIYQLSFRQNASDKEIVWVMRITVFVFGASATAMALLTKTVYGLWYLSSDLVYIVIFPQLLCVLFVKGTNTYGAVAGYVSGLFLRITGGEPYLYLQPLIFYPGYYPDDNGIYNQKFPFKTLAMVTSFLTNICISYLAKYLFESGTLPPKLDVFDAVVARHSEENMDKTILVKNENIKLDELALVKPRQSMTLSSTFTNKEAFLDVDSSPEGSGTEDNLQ

T1 sequence (P41143 whole entry): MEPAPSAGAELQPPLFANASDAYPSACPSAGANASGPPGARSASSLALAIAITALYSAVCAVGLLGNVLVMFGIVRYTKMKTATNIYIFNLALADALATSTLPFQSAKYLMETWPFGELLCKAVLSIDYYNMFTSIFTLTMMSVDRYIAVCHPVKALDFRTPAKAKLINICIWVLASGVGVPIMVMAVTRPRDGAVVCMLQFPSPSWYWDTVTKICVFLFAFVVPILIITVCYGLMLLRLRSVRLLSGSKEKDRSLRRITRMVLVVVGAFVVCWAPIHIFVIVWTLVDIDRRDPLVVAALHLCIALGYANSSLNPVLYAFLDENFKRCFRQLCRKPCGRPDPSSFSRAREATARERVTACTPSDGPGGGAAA
T3 sequence (P41145 whole entry): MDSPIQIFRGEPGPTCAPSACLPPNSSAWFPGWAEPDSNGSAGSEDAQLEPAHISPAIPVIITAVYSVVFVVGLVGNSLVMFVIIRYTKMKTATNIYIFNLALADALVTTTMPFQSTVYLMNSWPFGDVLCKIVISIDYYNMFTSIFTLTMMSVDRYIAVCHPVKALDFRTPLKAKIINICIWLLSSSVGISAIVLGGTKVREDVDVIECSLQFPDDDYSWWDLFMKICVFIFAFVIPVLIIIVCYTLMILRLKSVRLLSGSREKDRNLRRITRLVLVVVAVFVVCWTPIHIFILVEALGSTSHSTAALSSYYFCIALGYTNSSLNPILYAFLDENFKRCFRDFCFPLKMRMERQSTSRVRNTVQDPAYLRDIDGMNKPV
Paired box protein Pax-8, sequence (Q06710 whole entry): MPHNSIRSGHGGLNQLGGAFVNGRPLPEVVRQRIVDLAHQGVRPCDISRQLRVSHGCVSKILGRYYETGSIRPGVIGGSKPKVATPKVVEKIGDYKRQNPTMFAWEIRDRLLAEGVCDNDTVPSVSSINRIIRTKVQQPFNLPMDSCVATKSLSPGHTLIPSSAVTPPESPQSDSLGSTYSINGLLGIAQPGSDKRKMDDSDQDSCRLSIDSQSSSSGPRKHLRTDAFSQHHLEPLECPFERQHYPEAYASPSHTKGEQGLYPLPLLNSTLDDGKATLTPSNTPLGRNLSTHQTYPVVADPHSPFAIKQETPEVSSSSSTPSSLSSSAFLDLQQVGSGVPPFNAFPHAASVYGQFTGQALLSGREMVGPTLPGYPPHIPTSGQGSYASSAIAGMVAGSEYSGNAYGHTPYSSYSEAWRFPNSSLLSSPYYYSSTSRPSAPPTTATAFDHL
CAAX prenyl protease 1, sequence (P47154 whole entry): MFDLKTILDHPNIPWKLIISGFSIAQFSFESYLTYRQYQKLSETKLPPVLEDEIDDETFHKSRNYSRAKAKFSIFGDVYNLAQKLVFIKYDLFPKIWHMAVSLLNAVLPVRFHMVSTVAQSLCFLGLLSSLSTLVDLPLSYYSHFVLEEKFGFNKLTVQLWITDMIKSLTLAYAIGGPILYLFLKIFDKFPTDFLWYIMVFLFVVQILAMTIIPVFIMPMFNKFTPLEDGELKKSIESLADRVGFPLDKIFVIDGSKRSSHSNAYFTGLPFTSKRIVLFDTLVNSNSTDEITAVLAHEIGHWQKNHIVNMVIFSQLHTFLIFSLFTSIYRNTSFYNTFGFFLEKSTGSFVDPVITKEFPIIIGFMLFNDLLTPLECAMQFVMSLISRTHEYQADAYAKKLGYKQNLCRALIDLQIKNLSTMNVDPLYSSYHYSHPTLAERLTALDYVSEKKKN
Exodeoxyribonuclease V, sequence (P04993 whole entry): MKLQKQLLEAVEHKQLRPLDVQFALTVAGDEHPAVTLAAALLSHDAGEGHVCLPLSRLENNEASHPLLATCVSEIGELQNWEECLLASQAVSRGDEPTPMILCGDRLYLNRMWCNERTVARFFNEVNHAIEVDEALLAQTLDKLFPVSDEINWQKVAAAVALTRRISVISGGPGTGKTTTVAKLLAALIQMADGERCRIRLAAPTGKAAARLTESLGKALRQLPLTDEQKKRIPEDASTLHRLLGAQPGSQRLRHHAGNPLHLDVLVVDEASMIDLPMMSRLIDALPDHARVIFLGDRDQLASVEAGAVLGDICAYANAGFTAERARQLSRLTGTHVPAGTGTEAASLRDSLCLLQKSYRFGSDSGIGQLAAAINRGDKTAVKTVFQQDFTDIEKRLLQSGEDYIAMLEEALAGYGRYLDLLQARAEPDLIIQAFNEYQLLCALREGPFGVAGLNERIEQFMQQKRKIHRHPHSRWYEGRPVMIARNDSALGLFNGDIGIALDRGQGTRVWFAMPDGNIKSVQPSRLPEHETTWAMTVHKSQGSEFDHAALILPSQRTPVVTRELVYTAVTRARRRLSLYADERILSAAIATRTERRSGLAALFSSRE
Exodeoxyribonuclease V, sequence (P07648 whole entry): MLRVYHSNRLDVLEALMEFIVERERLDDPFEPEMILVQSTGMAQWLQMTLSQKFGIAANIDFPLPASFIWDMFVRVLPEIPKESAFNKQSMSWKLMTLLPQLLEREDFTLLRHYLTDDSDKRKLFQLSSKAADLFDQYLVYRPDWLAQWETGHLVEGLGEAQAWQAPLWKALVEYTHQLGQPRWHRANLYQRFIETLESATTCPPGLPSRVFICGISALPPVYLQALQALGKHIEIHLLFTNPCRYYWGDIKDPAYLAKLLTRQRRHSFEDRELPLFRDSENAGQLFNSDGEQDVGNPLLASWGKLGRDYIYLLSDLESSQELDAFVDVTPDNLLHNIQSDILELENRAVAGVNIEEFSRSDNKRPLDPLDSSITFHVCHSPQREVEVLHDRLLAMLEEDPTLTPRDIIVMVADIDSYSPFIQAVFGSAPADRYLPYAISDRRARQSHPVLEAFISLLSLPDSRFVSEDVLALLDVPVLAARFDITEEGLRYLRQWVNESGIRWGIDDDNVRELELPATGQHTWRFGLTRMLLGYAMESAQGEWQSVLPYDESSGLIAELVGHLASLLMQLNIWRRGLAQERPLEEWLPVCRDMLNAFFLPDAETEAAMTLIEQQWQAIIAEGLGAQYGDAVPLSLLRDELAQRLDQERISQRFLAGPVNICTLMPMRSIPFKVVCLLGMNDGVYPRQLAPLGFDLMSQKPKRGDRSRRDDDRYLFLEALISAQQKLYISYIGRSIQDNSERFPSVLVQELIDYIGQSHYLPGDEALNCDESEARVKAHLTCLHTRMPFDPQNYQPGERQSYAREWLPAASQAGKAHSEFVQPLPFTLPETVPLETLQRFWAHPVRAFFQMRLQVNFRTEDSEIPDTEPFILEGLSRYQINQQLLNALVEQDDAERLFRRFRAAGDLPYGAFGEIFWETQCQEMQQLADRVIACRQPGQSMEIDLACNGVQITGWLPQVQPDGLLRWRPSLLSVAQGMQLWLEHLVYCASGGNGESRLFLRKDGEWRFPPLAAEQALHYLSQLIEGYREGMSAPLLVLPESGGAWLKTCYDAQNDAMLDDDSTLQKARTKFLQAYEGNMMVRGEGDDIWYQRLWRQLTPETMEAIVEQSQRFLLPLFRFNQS
Exodeoxyribonuclease V, sequence (P08394 whole entry): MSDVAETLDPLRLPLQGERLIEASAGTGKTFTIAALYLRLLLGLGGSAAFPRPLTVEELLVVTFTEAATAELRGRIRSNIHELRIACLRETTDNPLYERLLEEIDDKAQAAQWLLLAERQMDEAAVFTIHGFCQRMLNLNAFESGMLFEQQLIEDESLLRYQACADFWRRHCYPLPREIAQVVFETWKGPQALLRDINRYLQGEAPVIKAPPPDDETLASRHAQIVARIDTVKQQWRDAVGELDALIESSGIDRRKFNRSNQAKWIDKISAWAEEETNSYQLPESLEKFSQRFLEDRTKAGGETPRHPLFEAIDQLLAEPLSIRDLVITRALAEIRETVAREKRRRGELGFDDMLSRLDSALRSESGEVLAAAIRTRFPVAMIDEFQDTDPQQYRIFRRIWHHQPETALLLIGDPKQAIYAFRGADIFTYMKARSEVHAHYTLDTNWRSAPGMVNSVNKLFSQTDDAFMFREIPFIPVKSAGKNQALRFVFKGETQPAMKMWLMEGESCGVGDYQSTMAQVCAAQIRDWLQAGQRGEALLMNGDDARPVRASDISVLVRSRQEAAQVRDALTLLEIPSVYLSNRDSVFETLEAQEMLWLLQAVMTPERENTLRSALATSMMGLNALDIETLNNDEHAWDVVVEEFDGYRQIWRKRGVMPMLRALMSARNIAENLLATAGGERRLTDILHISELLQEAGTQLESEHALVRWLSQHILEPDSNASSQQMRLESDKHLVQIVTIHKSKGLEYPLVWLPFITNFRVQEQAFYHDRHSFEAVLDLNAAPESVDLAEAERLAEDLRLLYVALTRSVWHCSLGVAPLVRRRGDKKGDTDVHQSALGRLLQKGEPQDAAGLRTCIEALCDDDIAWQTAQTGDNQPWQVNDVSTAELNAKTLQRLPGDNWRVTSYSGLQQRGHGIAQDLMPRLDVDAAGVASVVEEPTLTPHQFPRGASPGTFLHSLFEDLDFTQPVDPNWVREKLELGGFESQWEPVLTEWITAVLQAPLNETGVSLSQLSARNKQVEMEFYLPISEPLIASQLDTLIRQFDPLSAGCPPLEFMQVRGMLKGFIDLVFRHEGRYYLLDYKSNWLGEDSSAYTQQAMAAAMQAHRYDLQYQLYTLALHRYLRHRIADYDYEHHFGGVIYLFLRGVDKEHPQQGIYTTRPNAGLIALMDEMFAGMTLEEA
Trypsin, sequence (P00761 whole entry): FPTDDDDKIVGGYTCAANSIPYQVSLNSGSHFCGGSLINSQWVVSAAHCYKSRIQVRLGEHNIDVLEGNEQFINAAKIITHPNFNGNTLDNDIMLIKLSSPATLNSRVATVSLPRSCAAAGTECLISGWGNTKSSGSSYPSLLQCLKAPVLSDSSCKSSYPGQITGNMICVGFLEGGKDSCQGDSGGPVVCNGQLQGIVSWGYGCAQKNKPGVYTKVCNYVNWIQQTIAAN

CCN(CC)CCCNC(=O)CCc1c(C)n(CC)c2cc(-c3ccccc3OC)nn2c1=O
AC50 (Trypsin): 13.1 µM (active) | AC50 (CAAX prenyl protease 1): 6.24 µM (active)

O=c1nc(-c2ccccn2)[nH]c2sc(-c3ccccc3)cc12
IC50 [1]: > 32 µM (inactive) | EC50 (Mu-type opioid receptor): > 32 µM (inactive) | EC50 [2]: > 32 µM (inactive) | EC50 (Streptokinase A): > 150 µM (not active) | IC50 [3]: 1.79 µM (active) | EC50 (Beta-galactosidase): > 31.5 µM (inactive) | IC50 [4]: > 32 µM | AC50 (Paired box protein Pax-8): 14 µM (active)

Fc1ccc(Nc2nnc(C(F)(F)F)s2)cc1Cl
IC50 (Exodeoxyribonuclease V): > 39.5 µM (inactive) | IC50 [5]: 96.8 µM (inactive) | IC50 [6]: 11 µM (active)
